Patent US20150094294A1, “COMPOUNDS AND METHODS FOR TREATING MALARIA” (Cellceutix Corporation, priority 2012, published 2015)
In brackets after ≈: the same amount, converted by molar mass.

What was measured:
Assay type in all cases: cell-based
[1] = Cytotoxicity against 3T3 cells; conditions: mouse
[2] = Cytotoxicity against HepG2 cells; conditions: human
in vitro = assay: in vitro
[3] = system: P. falciparum 3D7 (chloroquine-sensitive); assay: Anti-malarial activity, P. falciparum 3D7 culture, 72 hour, DNA content by flow cytometry; conditions: Plasmodium falciparum, 3D7, 72 h, synchronized ring-stage parasites
Method: Numerous compounds were screened in cultures of the malaria parasite P. falciparum 3D7 (chloroquine-sensitive) and DD2 (chloroquine-resistant). The compounds were also screened for toxixcity against 3T3 cells, HepG2 cells, and in a hemolysis assay. In brief, P. falciparum parasites were cultured in RPMI 1640 (Invitrogen) supplemented with Albumax II (Invitrogen). For synchronization, schizont stage parasites were magnet purified using a SuperMACS™ II Cell Separation Unit (Miltenyi Biotech). For IC50 determinations, synchronized ring-stage parasites were plated at 0.5% parasitemia and 8% hematocrit in 96-well plates at a total volume of 50 μL. Serial dilutions of 2× concentration of the respective compound, ranging from 2.5 μM to 20 nM, were added to the wells to bring the total volume up to 100 μL and 4% hematocrit. Compounds were assayed for a 72 hour period, after which the cultures were fixed with a solution of 4% paraformaldehyde and 0.08% glutaraldhyde in PBS. The cells were then permeabilized with 0.25% Triton X-100, and SYTOX Green Nucleic Acid Stain (Invitrogen) in PBS was added to a final concentration of 5 μM. DNA content, as an indicator of parasitemia, was analyzed on an Accuri C6 Flow Cytometer with C-Sampler. IC50 curves were generated using GraphPad Prism (GraphPad Software).

[4] = 3T3 cells, read-out: Cytotoxicity 3T3 EC50
[5] = HepG2 cells, read-out: Cytotoxicity HepG2 EC50

| SMILES | EC50 [1, 4] | EC50 [2, 5] | EC50 (in vitro) | IC50 [3] | EC50 [1] | EC50 [2] | EC50 (in vitro; hemolysis assay, read-out: Cytotoxicity Hemolysis EC50) |
| --- | --- | --- | --- | --- | --- | --- | --- |
| N=C(N)NCCc1ccc(C(F)(F)F)cc1NC(=O)c1cc(C(=O)Nc2cc(C(F)(F)F)ccc2CCNC(=N)N)ncn1 [Compound 176] | 523 µM | 608 µM | 314 µg/mL (≈ 503 µM) | 0.629 µM | – | – | – |
| O=C(Nc1ccc(N2CCNCC2)cc1)c1cc(C(=O)Nc2ccc(N3CCNCC3)cc2)ncn1 [Compound 201] | 137 µM | 234 µM | 48 µg/mL (≈ 98.6 µM) | < 0.001 µM | – | – | – |
| NCCCc1ccc(-c2ccc(CCCN)cc2)cc1 [Compound 318] | 624 µM | > 1000 µM | > 1000 µg/mL | > 0.1 µM | – | – | – |
| NCCCOc1cccc(-n2cc(-c3cccc(-c4cn(-c5cccc(OCCCN)c5)nn4)c3)nn2)c1 [Compound 180] | 40 µM | 78 µM | 63 µg/mL (≈ 123 µM) | 0.641 µM | – | – | – |
| O=C(Nc1ccc(O[C@H]2CCNC2)cc1)c1cc(C(=O)Nc2ccc(O[C@H]3CCNC3)cc2)ncn1 [Compound 207] | 478 µM | 819 µM | 29 µg/mL (≈ 59.4 µM) | 0.182 µM | – | – | – |
| c1nc(-c2ccc(N3CCNCC3)cc2)cc(-c2ccc(N3CCNCC3)cc2)n1 [Compound 154] | 210 µM | 471 µM | 352 µg/mL (≈ 879 µM) | 0.473 µM | – | – | – |
| O=C(Nc1ccc(O[C@@H]2CCNC2)c(Cl)c1)c1cc(C(=O)Nc2ccc(O[C@@H]3CCNC3)c(Cl)c2)ncn1 [Compound 205] | 40 µM | 307 µM | 176 µg/mL (≈ 316 µM) | 0.07 µM | – | – | – |
| N=C(N)NCCCc1cccc(-c2cncc(-c3ccc(-c4cncc(-c5cccc(CCCNC(=N)N)c5)c4)s3)c2)c1 [Compound 233] | 61 µM | 88 µM | 2 µg/mL (≈ 3.4 µM) | 0.737 µM | – | – | – |
| COc1cc(SCCNC(=N)N)c(C(F)(F)F)cc1NC(=O)c1cc(C(=O)Nc2cc(C(F)(F)F)c(SCCNC(=N)N)cc2OC)ncn1 [Compound 302] | 687 µM | > 1000 µM | 4 µg/mL (≈ 5.34 µM) | 0.333 µM | – | – | – |
| NCc1ccc(C(F)(F)F)c(Oc2ccc(S(=O)(=O)c3ccc(Oc4cc(CN)ccc4C(F)(F)F)cc3)cc2)c1 [Compound 156] | 25 µM | 50 µM | 9 µg/mL (≈ 15.1 µM) | 0.258 µM | – | – | – |
| O=C(Nc1ccc(O[C@@H]2CCNC2)cc1)c1cc(C(=O)Nc2ccc(O[C@@H]3CCNC3)cc2)ncn1 [Compound 197] | 405 µM | 881 µM | 187 µg/mL (≈ 383 µM) | 0.014 µM | – | – | – |
| N=C(N)NCCCCCC(=O)Nc1cccc(-c2cc(-c3ccc(NC(=O)CCCCNC(=N)N)cc3)nc(-c3ccccc3)n2)c1 [Compound 139] | 36 µM | 23 µM | – | 0.43 µM | – | – | – |
| N=C(N)NCCc1cccc(-c2cncc(-c3cccc(CCNC(=N)N)c3)c2)c1 [Compound 134] | 654 µM | 905 µM | > 1000 µg/mL | 0.126 µM | – | – | – |
| COc1cc(OC)c(C(=O)Nc2cc(C(F)(F)F)cc(NC(=O)c3cccc(C#N)c3)c2SCCN)cc1C(=O)Nc1cc(C(F)(F)F)cc(NC(=O)c2cccc(C#N)c2)c1SCCN [Compound 300] | 848 µM | 848 µM | – | – | – | – | – |
| CC1(C)c2cc(-c3cccc(CCNC(=N)N)c3)ccc2-c2ccc(-c3cccc(CCNC(=N)N)c3)cc21 [Compound 284] | 6 µM | 28 µM | 2 µg/mL (≈ 3.87 µM) | > 0.1 µM | – | – | – |
| N=C(N)NCCSc1ccc(NC(=O)Nc2cccc(CCNC(=N)N)c2)cc1C(F)(F)F [Compound 270] | 398 µM | 702 µM | 317 µg/mL (≈ 657 µM) | 0.108 µM | – | – | – |
| O=C(Nc1ccc(O[C@@H]2CCNC2)cc1)c1cncc(C(=O)Nc2ccc(O[C@@H]3CCNC3)cc2)c1 [Compound 194] | > 1000 µM | > 1000 µM | > 1000 µg/mL | 0.187 µM | – | – | – |
| O=C(Nc1ccc(OC2CCNCC2)nc1)c1cc(C(=O)Nc2ccc(OC3CCNCC3)nc2)ncn1 [Compound 214] | > 1000 µM | > 1000 µM | > 1000 µg/mL | > 0.1 µM | – | – | – |
| COc1ccc(C(=O)Nc2cc(C(F)(F)F)cc(NC(=O)c3cc(C(=O)Nc4cc(C(F)(F)F)cc(NC(=O)c5ccc(OC)c(OC)c5)c4SCCN)ncn3)c2SCCN)cc1OC [Compound 312] | > 10000 µM | > 1000 µM | 6 µg/mL (≈ 6.23 µM) | – | – | – | – |
| N=C(N)NCCC#Cc1cncc(-c2cccc(-c3cncc(C#CCCNC(=N)N)c3)c2)c1 [Compound 137] | 272 µM | 422 µM | > 1000 µg/mL | 0.187 µM | – | – | – |
| CN(C)C1CCN(c2ccc(NC(=O)c3cccc(C(=O)Nc4ccc(N5CCC(N(C)C)CC5)cc4)n3)cc2)CC1 [Compound 216] | > 1000 µM | > 1000 µM | > 1000 µg/mL | > 0.1 µM | – | – | – |

| SMILES | EC50 [1, 4] | EC50 [2, 5] | EC50 (in vitro) | IC50 [3] | EC50 [1] | EC50 [2] | EC50 (in vitro; hemolysis assay, read-out: Cytotoxicity Hemolysis EC50) |
| --- | --- | --- | --- | --- | --- | --- | --- |
| NCCc1cccc(NC(=O)c2cccc(C(=O)Nc3cccc(CCN)c3)n2)c1 [Compound 191] | > 1000 µM | > 1000 µM | > 1000 µg/mL | 0.458 µM | – | – | – |
| N=C(N)N1CC=C(c2ccc(NC(=O)c3cc(C(=O)Nc4ccc(C5=CCN(C(=N)N)CC5)cc4)ncn3)cc2)CC1 [Compound 219] | 919 µM | > 1000 µM | – | – | – | – | – |
| N=C(N)NCCCn1c2ccc(C3=CCNCC3)cc2c2cc(C3=CCNCC3)ccc21 [Compound 290] | – | – | – | > 0.1 µM | > 1000 µM | > 1000 µM | – |
| c1cc(-c2ccc(N3CCNCC3)nc2)cc(-c2ccc(N3CCNCC3)nc2)c1 [Compound 257] | 40 µM | 220 µM | > 1000 µg/mL | > 0.1 µM | – | – | – |
| c1cc(-c2ccc(N3CCNCC3)nc2)cc(-c2cccc(-c3ccc(N4CCNCC4)nc3)c2)c1 [Compound 319] | 57 µM | 83 µM | 52 µg/mL (≈ 109 µM) | > 0.1 µM | – | – | – |
| O=C(Nc1ccc(O[C@@H]2CCNC2)nc1)c1cc(C(=O)Nc2ccc(O[C@@H]3CCNC3)nc2)ncn1 [Compound 215] | > 1000 µM | > 1000 µM | > 1000 µg/mL | > 0.1 µM | – | – | – |
| O=C(Nc1ccc(OC2CNC2)cc1)c1cc(C(=O)Nc2ccc(OC3CNC3)cc2)ncn1 [Compound 196] | > 1000 µM | 940 µM | 164 µg/mL (≈ 356 µM) | 0.03 µM | – | – | – |
| COc1cc(SCCN)c(C(F)(F)F)cc1NC(=O)Nc1ccc(SCCNC(=N)N)c(C(F)(F)F)c1 [Compound 276] | 42 µM | 154 µM | 65 µg/mL (≈ 114 µM) | 1.11 µM | – | – | – |
| NCCCOc1cc(OCCCN)cc(-c2ccc3c(c2)c2cc(-c4cc(OCCCN)cc(OCCCN)c4)ccc2n3CCCN)c1 [Compound 279] | 436 µM | 885 µM | > 1000 µg/mL | 0.773 µM | – | – | – |
| NCCC#Cc1cncc(-c2cccc(-c3cncc(C#CCCN)c3)c2)c1 [Compound 142] | 229 µM | 594 µM | 538 µg/mL (≈ 1470 µM) | 0.795 µM | – | – | – |
| NCCCn1c2ccc(C3=CCNCC3)cc2c2cc(C3=CCNCC3)ccc21 [Compound 288] | – | – | – | – | > 1000 µM | > 1000 µM | > 1000 µg/mL |
| N=C(N)N1CCN(c2ccc3sc4ccc(N5CCN(C(=N)N)CC5)cc4c3c2)CC1 [Compound 292] | 710 µM | > 1000 µM | – | 0.088 µM | – | – | – |
| NCCSc1c(N)cc(C(F)(F)F)cc1NC(=O)c1cc(C(=O)Nc2cc(C(F)(F)F)cc(NC(=O)c3cccnc3)c2SCCN)ncn1 [Compound 316] | 33 µM | 41 µM | 22 µg/mL (≈ 29.7 µM) | – | – | – | – |
| COc1cccc(C(=O)Nc2cc(C(F)(F)F)cc(NC(=O)c3cc(C(=O)Nc4cc(C(F)(F)F)cc(NC(=O)c5cccc(OC)c5)c4SCCN)ncn3)c2SCCN)c1 [Compound 309] | > 1000 µM | > 1000 µM | – | 0.079 µM | – | – | – |
| COc1ccc(C(=O)Nc2cc(C(F)(F)F)cc(NC(=O)c3cc(C(=O)Nc4cc(C(F)(F)F)cc(N)c4SCCN)ncn3)c2SCCN)cc1OC [Compound 313] | 92 µM | 545 µM | 14 µg/mL (≈ 17.5 µM) | – | – | – | – |
| NCCSc1c(NC(=O)c2cc(C(=O)Nc3cc(C(F)(F)F)cc(NC(=O)c4ccc(Cl)cc4Cl)c3SCCN)ncn2)cc(C(F)(F)F)cc1NC(=O)c1ccc(Cl)cc1Cl [Compound 314] | > 1000 µM | 827 µM | – | – | – | – | – |
| CN1CCN(c2ccc(-c3cc(-c4ccc(N5CCN(C)CC5)cc4)ncn3)cc2)CC1 [Compound 278] | > 1000 µM | > 1000 µM | – | > 0.1 µM | – | – | – |
| CCn1c2ccc(N3CCN(C(=N)N)CC3)cc2c2cc(N3CCN(C(=N)N)CC3)ccc21 [Compound 294] | > 1000 µM | > 1000 µM | – | > 0.1 µM | – | – | – |
| CN1CCN(c2ccc(NC(=O)c3cc(C(=O)Nc4ccc(N5CCN(C)CC5)cc4)ncn3)cc2)CC1 [Compound 212] | > 1000 µM | > 1000 µM | – | > 0.1 µM | – | – | – |
| N=C(N)NCCCCC(=O)Nc1cccc(NC(=O)c2cc(C(=O)Nc3cccc(NC(=O)CCCCNC(=N)N)c3SCCN)ncn2)c1SCCN [Compound 161] | 697 µM | 676 µM | – | 0.939 µM | – | – | – |
| O=S(=O)(c1ccc(Oc2cc(NC3CCNCC3)cc(C(F)(F)F)c2)cc1)c1ccc(Oc2cc(NC3CCNCC3)cc(C(F)(F)F)c2)cc1 [Compound 163] | 60 µM | 98 µM | – | – | – | – | – |
